Laboratory results reported in patent US20230165252A1, “ACTIVE COMPOUND COMBINATIONS” (Bayer Aktiengesellschaft, priority 2020, published 2023).
Read-outs that look alike come from different tables or passages of the source.

Key:
Assay type in all cases: cell-based
[1] = test system: Colletotrichum lindemuthianum; assay: in vitro-Test with Colletotrichum lindemuthianum (microtiter growth inhibition)
Procedure: (§1) The degree of efficacy expressed in % is denoted: 0% means an efficacy, which corresponds to that of the control, while an efficacy of 100% means that no disease is observed.
(§2) If the actual fungicidal activity exceeds the calculated value, then the activity of the combination is super-additive, i.e. a synergistic effect exists. In this case, the efficacy, which was actually observed, must be greater than the value for the expected efficacy (E), that was calculated from the abovementioned formula.
(§3) Example: In Vitro-Test with Fungal Microorganisms
(§4) Wells of 96-well microtiter plates are filled with 10 μl of a preparation of test compound or compound combination in methanol+emulsifier alkylaryl-polyglycol-ether. Thereafter, the solvent is evaporated in a hood. At the next step, 100 μl of liquid potato dextrose medium is given into each well, that has been amended with an appropriate concentration of spores or mycelium suspension of the test fungus.
(§5) With the aid of a photometer, the extinction in all wells is measured at the wavelength of 620 nm.
(§6) The microtiter plates are incubated at 20° C. and 85% relative humidity. The inhibition of growth is determined again photometrically 3-5 days after the application. Efficacy is calculated in relation to the untreated control, 0% efficacy means fungal growth as high as in untreated control while 100% efficacy means no fungal growth is measured.

[2] = test system: Parastagonospora nodorum; assay: in vitro-Test with Parastagonospora nodorum (microtiter growth inhibition); details: for Efficacy %: compound alone
Procedure: as §1, §2, §3, §4, §5, §6

[3] = test system: Cordana musae; assay: in vitro-Test with Cordana musae (microtiter growth inhibition); details: Neocordana musae
Procedure: as §1, §2, §3, §4, §5, §6

[4] = test system: Diaporthe citri; assay: in vitro-Test with Diaporthe citri (microtiter growth inhibition); details: Diaporthe citri, read-out: Efficacy
In short: (§7)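 Steps: dry the compound (methanol with alkylaryl-polyglycol-ether) in each well; add potato dextrose liquid medium containing fungal spores or mycelium; record 620 nm extinction; incubate at 20° C. and 85% relative humidity; re-measure photometrically after 3-5 days. Efficacy in % against untreated wells.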

[5] = test system: Fusarium culmorum; assay: in vitro-Test with Fusarium culmorum (microtiter growth inhibition); details: Fusarium culmorum, read-out: Efficacy
Procedure: as §1, §2, §3, §4, §5, §6

[6] = test system: Cercospora beticola; assay: in vitro-Test with Cercospora beticola (microtiter growth inhibition); details: Cercospora beticola
Procedure: as §1, §2, §3, §4, §5, §6

[7] = test system: Ustilago segetum var. avenae; assay: in vitro-Test with Ustilago segetum var. avenae (microtiter growth inhibition); details: read-out: Efficacy %
Procedure: as §1, §2, §3, §4, §5, §6

[8] = test system: Botrytis cinerea; assay: in vitro-Test with Botrytis cinerea (microtiter growth inhibition); details: for Efficacy: applied alone
In short: as §7

[9] = test system: Alternaria alternate; assay: in vitro-Test with Alternaria alternate (microtiter growth inhibition)
In short: as §7

[10] = Colletotrichum lindemuthianum, read-out: Efficacy %
[11] = Parastagonospora nodorum, read-out: Efficacy %

Molecule `N#Cc1c[nH]cc1-c1cccc2c1OC(F)(F)O2` [(13.001) fludioxonil] has an inhibition of growth at 0.04 ppm [1, 10] of 8%, an inhibition of growth at 0.2 ppm [1, 10] of 68% and an inhibition of growth at 1 ppm [1, 10] of 81%. For the same molecule, the inhibition of growth at 5 ppm [1, 10] was 44%, the Efficacy % ([1]; applied alone at 0.2 ppm) was 60% and the inhibition of growth at 1 ppm [2, 11] was 34%. It also gave an inhibition of growth at 5 ppm [2, 11] of 75%, an Efficacy % ([2]; 0.04 ppm) of 0% and an Efficacy % ([2]; 0.2 ppm) of 0%.
In the case of `CCO[PH](=O)[O-].CCO[PH](=O)[O-].CCO[PH](=O)[O-].[Al+3]` [(15.012) fosetylaluminium], the Efficacy % ([1]; applied alone at 4 ppm) is reported as 0%, the Efficacy % ([1]; applied alone at 20 ppm) is reported as 22% and the Efficacy % ([1]; applied alone at 100 ppm) is reported as 70%.
With `CCN(C)C=Nc1cc(C)c(Oc2ccccc2F)cc1Cl` [Compound 15.064, N′-[2-chloro-4-(2-fluorophenoxy)-5-methylphenyl]-N-ethyl-N-methylimidoformamide] the inhibition of growth at 0.08 ppm ([3]; single substance, 0.080 ppm, read-out: Efficacy) was 0%, the inhibition of growth at 0.4 ppm ([3]; single substance, 0.4 ppm, read-out: Efficacy) was 18% and the inhibition of growth at 2 ppm ([3]; single substance, 2 ppm, read-out: Efficacy) was 14%. The inhibition of growth at 10 ppm ([3]; single substance, 10 ppm, read-out: Efficacy) was 5%, the inhibition of growth at 0.08 ppm ([4]; applied alone, 0.080 ppm) was 11% and the inhibition of growth at 0.4 ppm ([4]; applied alone, 0.4 ppm) was 2%. It also gave an inhibition of growth at 2 ppm ([4]; applied alone, 2 ppm) of 5%, an inhibition of growth at 0.4 ppm [5] of 0% and an inhibition of growth at 2 ppm [5] of 1%. It also gave an inhibition of growth at 10 ppm [5] of 9%, an inhibition of growth at 0.08 ppm ([6]; alone, 0.08 ppm, read-out: Efficacy %) of 0% and an inhibition of growth at 0.4 ppm ([6]; alone, 0.4 ppm, read-out: Efficacy %) of 0%. It also gave an inhibition of growth at 10 ppm ([6]; alone, 10 ppm, read-out: Efficacy %) of 14%, an inhibition of growth at 0.4 ppm ([7]; compound alone) of 0% and an inhibition of growth at 2 ppm ([7]; compound alone) of 41%. For the same molecule, the inhibition of growth at 10 ppm ([7]; compound alone) was 100%, the inhibition of growth at 0.08 ppm ([7]; single compound, 0.08 ppm) was 1% and the inhibition of growth at 0.4 ppm ([7]; single compound) was 2%. The inhibition of growth at 2 ppm ([7]; single compound) was 68%, the inhibition of growth at 10 ppm ([7]; single compound) was 100% and the inhibition of growth at 0.04 ppm ([8]; Botrytis cinerea, single active at 0.04 ppm, read-out: Efficacy %) was 0%. The inhibition of growth at 0.2 ppm ([8]; Botrytis cinerea, single active at 0.2 ppm, read-out: Efficacy %) was 100%, the inhibition of growth at 1 ppm ([8]; Botrytis cinerea, single active at 1.0 ppm, read-out: Efficacy %) was 100% and the inhibition of growth at 5 ppm ([8]; Botrytis cinerea, single active at 5.0 ppm, read-out: Efficacy %) was 100%. The Efficacy ([8]; 0.080 ppm) was 0%, the Efficacy ([8]; 0.4 ppm) was 0% and the Efficacy ([8]; 2 ppm) was 31%.
`N#Cc1c[nH]cc1-c1cccc2c1OC(F)(F)O2` [fludioxonil] was tested, and the inhibition of growth at 1 ppm ([3]; read-out: Efficacy, single substance, 1.0 ppm) was 20%, the inhibition of growth at 5 ppm ([3]; read-out: Efficacy, single substance, 5.0 ppm) was 44% and the inhibition of growth at 0.04 ppm [4] was 12%. The inhibition of growth at 0.2 ppm [4] was 0%, the inhibition of growth at 1 ppm [4] was 45% and the inhibition of growth at 5 ppm [4] was 10%. The inhibition of growth at 0.04 ppm [5] was 0%, the inhibition of growth at 0.08 ppm ([5]; 0.08 ppm) was 1% and the inhibition of growth at 0.2 ppm ([5]; 0.2 ppm) was 0%. For the same molecule, the inhibition of growth at 0.4 ppm [5] was 1%, the inhibition of growth at 1 ppm [5] was 91% and the inhibition of growth at 2 ppm [5] was 2%. The inhibition of growth at 5 ppm ([5]; 5.0 ppm) was 100%, the inhibition of growth at 10 ppm [5] was 11% and the inhibition of growth at 5 ppm ([6]; read-out: Efficacy %, alone, 5.0 ppm) was 95%. It also gave an inhibition of growth at 0.04 ppm ([9]; Alternaria, read-out: Efficacy %, 0.04 ppm, alone) of 0%, an inhibition of growth at 0.2 ppm ([9]; Alternaria, read-out: Efficacy %, 0.2 ppm, alone) of 0% and an inhibition of growth at 1 ppm ([9]; Alternaria, read-out: Efficacy %, 1.0 ppm, alone) of 87%. It also gave an inhibition of growth at 5 ppm ([9]; Alternaria, read-out: Efficacy %, 5.0 ppm, alone) of 100%, an inhibition of growth at 0.04 ppm ([9]; Alternaria, read-out: Efficacy, applied alone, 0.04 ppm) of 0% and an inhibition of growth at 0.2 ppm ([9]; Alternaria, read-out: Efficacy, applied alone, 0.2 ppm) of 0%. For the same molecule, the inhibition of growth at 1 ppm ([9]; Alternaria, read-out: Efficacy, applied alone, 1.0 ppm) was 96%, the inhibition of growth at 5 ppm ([9]; Alternaria, read-out: Efficacy, applied alone, 5.0 ppm) was 100% and the inhibition of growth at 0.04 ppm [7] was 10%. For the same molecule, the inhibition of growth at 0.2 ppm [7] was 60%, the inhibition of growth at 1 ppm [7] was 100% and the inhibition of growth at 5 ppm [7] was 100%. For the same molecule, the Efficacy ([8]; 0.04 ppm) was 12%, the Efficacy ([8]; 0.2 ppm) was 99% and the Efficacy ([8]; 1.0 ppm) was 100%. For the same molecule, the Efficacy ([8]; 5.0 ppm) was 100%.
In the case of `CON=C(C(=O)OC)c1ccccc1CON=C(C)c1cccc(C(F)(F)F)c1` [trifloxystrobin], the inhibition of growth at 0.008 ppm ([3]; single substance, 0.008 ppm, read-out: Efficacy) is reported as 29%, the inhibition of growth at 0.2 ppm ([3]; single substance, 0.2 ppm, read-out: Efficacy) is reported as 66% and the inhibition of growth at 0.008 ppm ([4]; applied alone, 0.008 ppm) is reported as 82%. It also gave an inhibition of growth at 0.04 ppm ([4]; applied alone, 0.04 ppm) of 94%, an inhibition of growth at 0.2 ppm ([4]; applied alone, 0.2 ppm) of 97% and an inhibition of growth at 1 ppm ([4]; applied alone, 1.0 ppm) of 98%. For the same molecule, the inhibition of growth at 0.008 ppm ([5]; 0.008 ppm) was 0%, the inhibition of growth at 0.04 ppm [5] was 0% and the inhibition of growth at 1 ppm [5] was 11%. The Efficacy ([2]; 0.008 ppm) was 38%, the Efficacy ([2]; 0.04 ppm) was 63% and the Efficacy ([2]; 0.2 ppm) was 78%. The Efficacy ([2]; 1.0 ppm) was 79%, the inhibition of growth at 0.008 ppm ([6]; alone, 0.008 ppm, read-out: Efficacy %) was 98% and the inhibition of growth at 0.2 ppm ([6]; alone, 0.2 ppm, read-out: Efficacy %) was 95%. It also gave an inhibition of growth at 0.008 ppm ([9]; Alternaria, 0.008 ppm, alone, read-out: Efficacy %) of 56%, an inhibition of growth at 0.04 ppm ([9]; Alternaria, 0.04 ppm, alone, read-out: Efficacy %) of 84% and an inhibition of growth at 0.2 ppm ([9]; Alternaria, 0.2 ppm, alone, read-out: Efficacy %) of 90%. For the same molecule, the inhibition of growth at 1 ppm ([9]; Alternaria, 1.0 ppm, alone, read-out: Efficacy %) was 98%, the inhibition of growth at 0.04 ppm ([9]; Alternaria, applied alone, 0.04 ppm, read-out: Efficacy) was 82% and the inhibition of growth at 0.2 ppm ([9]; Alternaria, applied alone, 0.2 ppm, read-out: Efficacy) was 87%. For the same molecule, the Efficacy ([9]; applied alone, 0.008 ppm) was 51%, the inhibition of growth at 0.008 ppm ([7]; single compound, 0.008 ppm) was 16% and the inhibition of growth at 0.04 ppm ([7]; single compound, 0.04 ppm) was 40%. It also gave an inhibition of growth at 0.2 ppm ([7]; single compound, 0.2 ppm) of 53%.
